The target of assay [1] is T1, Olfr1062 (Mus musculus, UniProt Q7TR71).
T1 sequence (Q7TR71 1-315): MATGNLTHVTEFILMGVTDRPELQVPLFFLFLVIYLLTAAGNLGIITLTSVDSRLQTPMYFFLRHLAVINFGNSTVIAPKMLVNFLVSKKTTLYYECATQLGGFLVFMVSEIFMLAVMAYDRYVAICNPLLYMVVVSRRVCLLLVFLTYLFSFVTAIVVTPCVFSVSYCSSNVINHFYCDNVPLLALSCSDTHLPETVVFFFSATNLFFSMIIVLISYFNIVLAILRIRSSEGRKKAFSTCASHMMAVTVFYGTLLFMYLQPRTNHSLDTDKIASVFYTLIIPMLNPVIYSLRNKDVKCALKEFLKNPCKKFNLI
As to the kind of experiment: Dual-Glo firefly/Renilla luciferase reporter, dose-response. Format: cell-based. As to conditions: odorant up to 0.3 mM; competitive-binding model fit, single odorant. A general note: A reporter such as luciferase makes a cellular process visible.

The target of assay [2] is T2, OR5P3 (Homo sapiens, UniProt Q8WZ94).
T2 sequence (Q8WZ94 1-311): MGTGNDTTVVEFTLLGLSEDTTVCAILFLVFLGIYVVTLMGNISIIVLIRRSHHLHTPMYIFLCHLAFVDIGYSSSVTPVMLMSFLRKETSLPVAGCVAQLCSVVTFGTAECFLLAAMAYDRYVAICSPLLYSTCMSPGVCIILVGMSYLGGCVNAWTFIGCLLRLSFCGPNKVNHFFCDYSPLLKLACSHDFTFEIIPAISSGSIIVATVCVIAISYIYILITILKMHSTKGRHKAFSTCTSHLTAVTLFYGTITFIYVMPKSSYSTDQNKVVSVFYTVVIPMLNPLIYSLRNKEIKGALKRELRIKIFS
The assay is described as above. Format: cell-based. The following applies: odorant up to 0.3 mM; competitive-binding model fit, single odorant.

As for `CC(=O)c1ccccc1` [acetophenone], the EC50 entry in assay [1] is “Olfr1062, synergy between all three pairs”; in assay [2], “OR5P3, synergy between coumarin and acetophenone”.
As to `O=c1ccc2ccccc2o1` [coumarin], the EC50 result is “Olfr1062, synergy between all three pairs” in assay [1]; “OR5P3, synergy between coumarin and acetophenone” in assay [2].
Regarding `C=CCc1ccc(O)c(OC)c1` [eugenol], the EC50 result in assay [1] was “Olfr1062, synergy between all three pairs”.
